Experimental data published in patent US20160159816A1, “SUBSTITUTED THIENOPYRIMIDINES AND PHARMACEUTICAL USE THEREOF” (BAYER PHARMA AKTIENGESELLSCHAFT, priority 2013, published 2016).

Molecular target: T1, human full-length MKNK1 (Homo sapiens, UniProt Q9BUB5, T385D)
T1 construct: GST (N); purchased Carna Biosciences 02-145; host or cells: insect cells, baculovirus expression system
Assay: MKNK1 kinase high ATP assay (TR-FRET)
Type: biochemical
Conditions: high ATP (2 mM), after preincubation with MKNK1; compounds of the present invention (Table 1a)
Outline: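 GST-tagged full-length human MKNK1 pre-incubated 15 min with compound, then reacted 30 min at 22 °C with 2 mM ATP and 0.06 μM biotinylated peptide substrate (pH 7.5). Phospho-peptide detected by TR-FRET (665/620 nm ratio); normalised to no-inhibitor and no-enzyme controls.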

T1 sequence (Q9BUB5 1-424 isoform Q9BUB5-2 T344D): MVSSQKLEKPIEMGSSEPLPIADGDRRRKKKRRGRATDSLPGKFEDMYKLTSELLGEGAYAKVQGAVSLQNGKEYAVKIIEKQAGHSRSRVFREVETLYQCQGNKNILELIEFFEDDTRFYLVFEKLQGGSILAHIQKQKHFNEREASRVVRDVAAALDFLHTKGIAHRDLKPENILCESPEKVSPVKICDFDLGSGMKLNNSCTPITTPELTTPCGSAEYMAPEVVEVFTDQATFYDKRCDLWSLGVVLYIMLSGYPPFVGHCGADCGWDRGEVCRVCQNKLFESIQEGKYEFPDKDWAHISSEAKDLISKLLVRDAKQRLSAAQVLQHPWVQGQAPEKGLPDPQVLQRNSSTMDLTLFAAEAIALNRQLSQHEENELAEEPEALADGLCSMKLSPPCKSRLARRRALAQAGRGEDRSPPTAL

SMILES	IC50
CC(C)S(=O)(=O)NCC1CCc2c(sc3ncnc(Nc4ccc5[nH]ncc5c4)c23)C1 (racemic) [Example 11, (RS)—N-{[4-(1H-Indazol-5-ylamino)-5,6,7,8-tetrahydro[1]benzothieno[2,3-d]pyrimidin-7-yl]methyl}propane-2-sulfonamide]	16.4 nM
COc1cc2[nH]ncc2cc1Nc1ncnc2sc3c(c12)CCC(CN=[N+]=[N-])C3 (racemic) [Example 18, (RS)-7-(Azidomethyl)-N-(6-methoxy-1H-indazol-5-yl)-5,6,7,8-tetrahydro[1]benzothieno[2,3-d]pyrimidin-4-amine]	23.9 nM
COCC1(OC)CCc2c(sc3ncnc(Nc4cc5cn[nH]c5cc4OC)c23)C1 (racemic) [Example 32, (RS)-7-Methoxy-N-(6-methoxy-1H-indazol-5-yl)-7-(methoxymethyl)-5,6,7,8-tetrahydro[1]benzothieno[2,3-d]pyrimidin-4-amine]	9.1 nM
